Experimental findings from ChEMBL document CHEMBL2157933, “The synthesis and antituberculosis activity of 5'-nor carbocyclic uracil derivatives” (Bioorg Med Chem, 2012) are described below.

Values after ≈ are worked out from the molar mass of the structure shown. Active and inactive are the calls of the source. The rule behind the calls is not given here. A value given as a limit tells only on which side of the number the result lay.

Data set [1] has as its system Mycobacterium tuberculosis. The experiment in a line: Antibacterial activity against Mycobacterium tuberculosis H37Rv by BACTEC method. The class given is functional.
Data set [2] in a line: (§1) Cytotoxicity against african green monkey Vero cells after 72 hrs by MTT assay. Type of data set: cell-based. Particulars: chlorocebus sabaeus, Vero cells.
In data set [3] the test system is Mycobacterium tuberculosis. Kind of data set: Antibacterial activity against Mycobacterium tuberculosis H37Rv assessed as growth inhibition at 40 ug/ml by BACTEC method. The class given is functional. The conditions noted are these: read-out: GI.
Data set [4] deals with Mycobacterium tuberculosis. The experiment in a line: Antibacterial activity against Mycobacterium tuberculosis H37Rv under anaerobic condition assessed as growth inhibition at 20 ug/ml after 2 to 3 days by BACTEC method. Type of data set: functional, organism-based.
In data set [5] the test system is Mycobacterium tuberculosis. The experiment in a line: Antibacterial activity against Mycobacterium tuberculosis H37Rv assessed as growth inhibition at 20 ug/ml by BACTEC method. The class given is functional. Particulars: read-out: GI.
The subject of data set [6] is Mycobacterium tuberculosis. Kind of data set: Antibacterial activity against Mycobacterium tuberculosis H37Rv assessed as growth inhibition at 20 to 40 ug/ml by BACTEC method. The class given is functional.
For the next data set, the system named is Vero. The description is as §1. The class given is cell-based. The conditions noted are these: chlorocebus sabaeus, vero, 72 h.
For data set [7], the system named is Mycobacterium tuberculosis. Kind of data set: Antibacterial activity against Mycobacterium tuberculosis H37Rv under anaerobic condition assessed as growth inhibition at 10 ug/ml by BACTEC method. Type of data set: functional. The conditions noted are these: read-out: GI.
Data set [8] deals with Mycobacterium tuberculosis. The experiment in a line: Antibacterial activity against Mycobacterium tuberculosis H37Rv under anaerobic condition assessed as growth inhibition at 20 ug/ml by BACTEC method. The class given is functional. Particulars: read-out: GI.
Data set [9] deals with Mycobacterium tuberculosis. Kind of data set: Antibacterial activity against Mycobacterium tuberculosis H37Rv assessed as growth inhibition at 10 ug/ml by BACTEC method. The class given is functional. The conditions noted are these: read-out: GI.
The test system of data set [10] is Mycobacterium tuberculosis. Kind of data set: Antibacterial activity against Mycobacterium tuberculosis H37Rv under anaerobic condition assessed as growth inhibition at 5 ug/ml by BACTEC method. Type of data set: functional.
Data set [11] has as its system Mycobacterium tuberculosis. Kind of data set: Antibacterial activity against Mycobacterium tuberculosis H37Rv under anaerobic condition by BACTEC method. The class given is functional.
The test system of data set [12] is Mycobacterium tuberculosis. Kind of data set: Antibacterial activity against Mycobacterium tuberculosis H37Rv under anaerobic condition assessed as growth inhibition at 10 to 20 ug/ml by BACTEC method. The class given is functional.
Data set [13] concerns Mycobacterium tuberculosis. Kind of data set: Antibacterial activity against Mycobacterium tuberculosis H37Rv under anaerobic condition assessed as growth inhibition at 0.1 ug/ml by BACTEC method. Type of data set: functional. The conditions noted are these: read-out: GI.
Data set [14] relates to Mycobacterium tuberculosis. Kind of data set: Antibacterial activity against Mycobacterium tuberculosis H37Rv under anaerobic condition assessed as growth inhibition at 2 ug/ml by BACTEC method. Type of data set: functional. Particulars: read-out: GI.
Data set [15] deals with Mycobacterium tuberculosis. The experiment in a line: Antibacterial activity against Mycobacterium tuberculosis H37Rv under anaerobic condition assessed as growth inhibition at 100 ug/ml by BACTEC method. Particulars: read-out: GI. The class given is functional.
Data set [16] relates to Mycobacterium tuberculosis. The experiment in a line: Antibacterial activity against Mycobacterium tuberculosis H37Rv assessed as growth inhibition at 1 ug/ml by BACTEC method. The class given is functional. Particulars: read-out: GI.
The test system of data set [17] is Mycobacterium tuberculosis. The experiment in a line: Antibacterial activity against Mycobacterium tuberculosis H37Rv under anaerobic condition assessed as growth inhibition at 1 ug/ml by BACTEC method. The conditions noted are these: read-out: GI. Type of data set: functional.
Setting [18] is: Mycobacterium tuberculosis, H37Rv, read-out: MIC99.

Usually MIC99 stands for the lowest concentration that inhibits either 99% of growth or 99% of the strains tested, depending on the study. A word on the CC50: it is the concentration giving 50% cytotoxicity. Take `O=c1ccn(C2C=CC(O)C2)c(=O)[nH]1` (racemic): the MIC99 in data set [1] was greater than 40 mg/L. The compound further had a CC50 at 72 h in data set [2] greater than 200 mg/L. Also, the inhibition of growth at 40 µg/mL in data set [3] was 75%.

Compound `Cc1cc(=O)[nH]c(=O)n1C1C=CC(O)C1` (racemic) showed an MIC99 in [1] of 40 mg/L (≈ 192 µM). This compound also gave a CC50 at 72 h in [2] greater than 200 mg/L. Moreover, the “growth inhibition (GI)” value in data set [4] is “inactive”. In addition, the inhibition of growth at 40 µg/mL in [3] is 100%.

The compound `O=c1[nH]c(=O)n(C2C=CC(O)C2)cc1I` (racemic) showed an MIC99 in [1] of 20 mg/L (≈ 62.5 µM). Also, the CC50 at 72 h in data set [2] is greater than 200 mg/L. The inhibition of growth at 40 µg/mL in [3] was found to be 100%. Also, the inhibition of growth at 20 µg/mL in data set [5] came to 99%.

Regarding `CCCCCCCCC#Cc1cn(C2C=CC(O)C2)c(=O)[nH]c1=O` (racemic), in data set [1], the MIC99 is 40 mg/L (≈ 121 µM). The CC50 at 72 h in [2] was greater than 125 mg/L. In addition, the “growth inhibition (GI)” value in [4] was “inactive”. Also, the inhibition of growth at 40 µg/mL in data set [3] turned out to be 100%.

The compound `CCCCCCCCCCC#Cc1cn(C2C=CC(O)C2)c(=O)[nH]c1=O` (racemic) returned an MIC99 in data set [1] of 20 mg/L (≈ 55.8 µM). The compound further came in with a CC50 at 72 h in data set [2] greater than 125 mg/L. Also, the “growth inhibition (GI)” value in data set [6] is recorded as 99%.

In data set [1], `CCCCCCCCCCCCC#Cc1cn(C2C=CC(O)C2)c(=O)[nH]c1=O` (racemic) gave an MIC99 of 10 mg/L (≈ 25.9 µM). This compound also yielded a cytotoxic concentration (CC50) in the data set with Vero of 125 mg/L (≈ 323 µM). The inhibition of growth at 10 µg/mL in data set [7] and in data set [9] was 99% throughout. For the same compound, the inhibition of growth at 20 µg/mL in data set [8] stood at 100%. The “growth inhibition (GI)” value in [6] is given as 100%.

As for `CCCCCCCCCCCCC#Cc1cn(C2C=CC(O)C2)c(=O)[nH]c1=O` (single isomer, unassigned; (-)), the CC50 at 72 h in data set [2] was greater than 100 mg/L. Also, the “growth inhibition (GI)” value in [10] amounted to 99%; in data set [12] it was 100%. Moreover, in data set [11] (setting [18]), the MIC99 is 5 mg/L (≈ 12.9 µM).

With `CCCCCCCCCCCCC#Cc1cn(C2C=CC(O)C2)c(=O)[nH]c1=O` (stereo in doubt; (+)6), the “growth inhibition (GI)” value in [10] was found to be 25%. In data set [11], this compound displayed an MIC99 of 10 mg/L (≈ 25.9 µM).

For `CC[C@@H](CO)NCCN[C@@H](CC)CO` [ETHAMBUTOL], the inhibition of growth at 5 µg/mL in data set [10] (Mycobacterium tuberculosis, H37Rv, read-out: GI) was determined as 100%. The MIC99 in data set [11] (setting [18]) amounted to 5 mg/L (≈ 24.5 µM).

In the case of `NNC(=O)c1ccncc1` [ISONIAZID], in data set [13], the inhibition of growth at 0.1 µg/mL is 100%. In addition, the MIC99 in data set [11] (setting [18]) came to 0.1 mg/L (≈ 0.729 µM).

In the case of `CC1COc2c(N3CCN(C)CC3)c(F)cc3c(=O)c(C(=O)O)cn1c23` (stereo not given) [OFLOXACIN], the inhibition of growth at 2 µg/mL in data set [14] was 100%. For the same compound, the MIC99 in [11] (setting [18]) came to 2 mg/L (≈ 5.53 µM).

With `NC(=O)c1cnccn1` [PYRAZINAMIDE], the inhibition of growth at 100 µg/mL in [15] was 100%. For the same compound, in data set [11] (setting [18]), the MIC99 stood at 100 mg/L (≈ 812 µM).

Take `CO[C@H]1/C=C/O[C@@]2(C)Oc3c(C)c(O)c4c(O)c(c(/C=N/N5CCN(C)CC5)c(O)c4c3C2=O)NC(=O)/C(C)=C\C=C\[C@H](C)[C@H](O)[C@@H](C)[C@@H](O)[C@@H](C)[C@H](OC(C)=O)[C@@H]1C` [RIFAMPIN]: the MIC99 in data set [1] and in data set [11] (setting [18]) was 1 mg/L (≈ 1.22 µM) throughout. In data set [2], this compound came in with a CC50 at 72 h greater than 500 mg/L. Besides, the inhibition of growth at 1 µg/mL in data set [16] and in data set [17] was 100% in each case.

As for `CN[C@@H]1[C@H](O[C@H]2[C@H](O[C@H]3[C@H](O)[C@@H](O)[C@H](N=C(N)N)[C@@H](O)[C@@H]3N=C(N)N)O[C@@H](C)[C@]2(O)C=O)O[C@@H](CO)[C@H](O)[C@H]1O` [STREPTOMYCIN], the inhibition of growth at 0.1 µg/mL in data set [13] is 100%. In addition, in data set [11] (setting [18]), the MIC99 was 0.1 mg/L (≈ 0.172 µM).
